In ChEMBL document CHEMBL4507310, “Data for DCP probe A-1211212” (2021):

Key:
[1] = biological target: Epithelial discoidin domain-containing receptor 1 (Homo sapiens) (UniProt Q08345); settings: Compound concentration 1000.0 nM
[2] = biological target: Serine/threonine-protein kinase MRCK beta (Homo sapiens) (UniProt Q9Y5S2); settings: Compound concentration 1000.0 nM
[3] = biological target: Dual specificity protein kinase TTK (Homo sapiens) (UniProt P33981); settings: Compound concentration 1000.0 nM
[4] = biological target: Tyrosine-protein kinase JAK1 (Homo sapiens) (UniProt P23458); settings: Compound concentration 1000.0 nM
[5] = biological target: Ephrin type-A receptor 2 (Homo sapiens) (UniProt P29317); settings: Compound concentration 1000.0 nM
[6] = biological target: Tyrosine-protein kinase Blk (Homo sapiens) (UniProt P51451); settings: Compound concentration 1000.0 nM
[7] = biological target: Vascular endothelial growth factor receptor 3 (Homo sapiens) (UniProt P35916); settings: Compound concentration 1000.0 nM
[8] = biological target: Substance-P receptor (Homo sapiens) (UniProt P25103); assay: NK1 (h) Eurofins-Cerep binding assay; parameters: ligand concentration 0.05 nM; settings: filed as agonist, Compound concentration 10.0 uM
[9] = biological target: Ephrin type-B receptor 2 (Homo sapiens) (UniProt P29323); settings: Compound concentration 1000.0 nM
[10] = biological target: Mitogen-activated protein kinase kinase kinase kinase 5 (Homo sapiens) (UniProt Q9Y4K4); settings: Compound concentration 1000.0 nM
[11] = biological target: Glycogen synthase kinase-3 alpha (Homo sapiens) (UniProt P49840); settings: Compound concentration 1000.0 nM
[12] = biological target: Wee1-like protein kinase 2 (Homo sapiens) (UniProt P0C1S8); settings: Compound concentration 1000.0 nM
[13] = biological target: NUAK family SNF1-like kinase 2 (Homo sapiens) (UniProt Q9H093); settings: Compound concentration 1000.0 nM
[14] = biological target: T1, Alpha-2B adrenergic receptor (Homo sapiens) (UniProt P18089); settings: Compound concentration 10.0 uM
T1 sequence (whole entry): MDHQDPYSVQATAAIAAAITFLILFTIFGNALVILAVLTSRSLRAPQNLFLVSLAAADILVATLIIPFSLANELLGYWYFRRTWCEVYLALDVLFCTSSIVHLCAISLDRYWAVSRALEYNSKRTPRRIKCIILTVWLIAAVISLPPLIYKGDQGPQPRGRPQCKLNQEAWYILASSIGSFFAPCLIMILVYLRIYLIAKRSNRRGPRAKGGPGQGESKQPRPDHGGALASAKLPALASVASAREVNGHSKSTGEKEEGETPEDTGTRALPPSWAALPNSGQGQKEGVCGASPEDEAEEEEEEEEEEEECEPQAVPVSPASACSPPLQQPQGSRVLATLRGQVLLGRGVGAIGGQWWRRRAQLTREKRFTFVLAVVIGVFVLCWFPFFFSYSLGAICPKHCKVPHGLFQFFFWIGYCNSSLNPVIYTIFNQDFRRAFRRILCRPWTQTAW

[15] = biological target: Mitogen-activated protein kinase kinase kinase 3 (Homo sapiens) (UniProt Q99759); settings: Compound concentration 1000.0 nM
[16] = biological target: Aurora kinase A (Homo sapiens) (UniProt O14965); settings: Compound concentration 1000.0 nM
[17] = biological target: Serine/threonine-protein kinase Nek10 (Homo sapiens) (UniProt Q6ZWH5); settings: Compound concentration 1000.0 nM
[18] = biological target: Glucocorticoid receptor (Homo sapiens) (UniProt P04150); assay: GR (h) Eurofins-Cerep binding assay; parameters: ligand concentration 1.5 nM; settings: filed as agonist, Compound concentration 10.0 uM
[19] = biological target: Tyrosine-protein kinase Fer (Homo sapiens) (UniProt P16591); settings: Compound concentration 1000.0 nM
[20] = biological target: Bone morphogenetic protein receptor type-1A (Homo sapiens) (UniProt P36894); settings: Compound concentration 1000.0 nM
[21] = biological target: STE20-like serine/threonine-protein kinase (Homo sapiens) (UniProt Q9H2G2); settings: Compound concentration 1000.0 nM
[22] = biological target: Ephrin type-A receptor 7 (Homo sapiens) (UniProt Q15375); settings: Compound concentration 1000.0 nM
[23] = biological target: Serine/threonine-protein kinase PAK 2 (Homo sapiens) (UniProt Q13177); settings: Compound concentration 1000.0 nM
[24] = biological target: Tyrosine-protein kinase ABL1 (Homo sapiens) (UniProt P00519); settings: Compound concentration 1000.0 nM
[25] = biological target: Ephrin type-A receptor 3 (Homo sapiens) (UniProt P29320); settings: Compound concentration 1000.0 nM
[26] = biological target: Tyrosine-protein kinase JAK1 (Homo sapiens) (UniProt P23458); settings: Compound concentration 1000.0 nM; remark: listed apart in the source
[27] = biological target: Phosphorylase b kinase regulatory subunit alpha, liver isoform (Homo sapiens) (UniProt P46019); settings: Compound concentration 1000.0 nM
[28] = biological target: T2, Alpha-1B adrenergic receptor (Homo sapiens) (UniProt P35368); assay: Alpha1B (h) Eurofins-Cerep binding assay; parameters: ligand concentration 0.15 nM; settings: filed as antagonist, Compound concentration 10.0 uM
T2 sequence (whole entry): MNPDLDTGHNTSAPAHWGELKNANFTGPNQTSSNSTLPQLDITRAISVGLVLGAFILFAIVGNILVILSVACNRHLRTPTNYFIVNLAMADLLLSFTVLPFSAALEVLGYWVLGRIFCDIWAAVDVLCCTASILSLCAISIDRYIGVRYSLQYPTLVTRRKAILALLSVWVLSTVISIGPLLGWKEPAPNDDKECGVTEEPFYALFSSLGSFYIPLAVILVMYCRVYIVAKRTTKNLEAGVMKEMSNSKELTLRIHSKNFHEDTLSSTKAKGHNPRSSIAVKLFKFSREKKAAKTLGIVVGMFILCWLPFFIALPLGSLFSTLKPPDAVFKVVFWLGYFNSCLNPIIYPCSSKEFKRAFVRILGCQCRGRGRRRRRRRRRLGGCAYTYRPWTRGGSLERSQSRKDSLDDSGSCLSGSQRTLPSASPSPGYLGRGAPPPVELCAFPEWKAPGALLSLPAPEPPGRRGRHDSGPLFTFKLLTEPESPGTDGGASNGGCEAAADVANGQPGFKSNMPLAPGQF

[29] = biological target: T2, Alpha-1B adrenergic receptor (Homo sapiens); settings: Compound concentration 10.0 uM
[30] = biological target: Serine/threonine-protein kinase 10 (Homo sapiens) (UniProt O94804); settings: Compound concentration 1000.0 nM
[31] = biological target: Serine/threonine-protein kinase PLK1 (Homo sapiens) (UniProt P53350); settings: Compound concentration 1000.0 nM
[32] = biological target: Calcium/calmodulin-dependent protein kinase type IV (Homo sapiens) (UniProt Q16566); settings: Compound concentration 1000.0 nM

Sequence of Tyrosine-protein kinase JAK1 (Homo sapiens) (P23458 whole entry, canonical isoform): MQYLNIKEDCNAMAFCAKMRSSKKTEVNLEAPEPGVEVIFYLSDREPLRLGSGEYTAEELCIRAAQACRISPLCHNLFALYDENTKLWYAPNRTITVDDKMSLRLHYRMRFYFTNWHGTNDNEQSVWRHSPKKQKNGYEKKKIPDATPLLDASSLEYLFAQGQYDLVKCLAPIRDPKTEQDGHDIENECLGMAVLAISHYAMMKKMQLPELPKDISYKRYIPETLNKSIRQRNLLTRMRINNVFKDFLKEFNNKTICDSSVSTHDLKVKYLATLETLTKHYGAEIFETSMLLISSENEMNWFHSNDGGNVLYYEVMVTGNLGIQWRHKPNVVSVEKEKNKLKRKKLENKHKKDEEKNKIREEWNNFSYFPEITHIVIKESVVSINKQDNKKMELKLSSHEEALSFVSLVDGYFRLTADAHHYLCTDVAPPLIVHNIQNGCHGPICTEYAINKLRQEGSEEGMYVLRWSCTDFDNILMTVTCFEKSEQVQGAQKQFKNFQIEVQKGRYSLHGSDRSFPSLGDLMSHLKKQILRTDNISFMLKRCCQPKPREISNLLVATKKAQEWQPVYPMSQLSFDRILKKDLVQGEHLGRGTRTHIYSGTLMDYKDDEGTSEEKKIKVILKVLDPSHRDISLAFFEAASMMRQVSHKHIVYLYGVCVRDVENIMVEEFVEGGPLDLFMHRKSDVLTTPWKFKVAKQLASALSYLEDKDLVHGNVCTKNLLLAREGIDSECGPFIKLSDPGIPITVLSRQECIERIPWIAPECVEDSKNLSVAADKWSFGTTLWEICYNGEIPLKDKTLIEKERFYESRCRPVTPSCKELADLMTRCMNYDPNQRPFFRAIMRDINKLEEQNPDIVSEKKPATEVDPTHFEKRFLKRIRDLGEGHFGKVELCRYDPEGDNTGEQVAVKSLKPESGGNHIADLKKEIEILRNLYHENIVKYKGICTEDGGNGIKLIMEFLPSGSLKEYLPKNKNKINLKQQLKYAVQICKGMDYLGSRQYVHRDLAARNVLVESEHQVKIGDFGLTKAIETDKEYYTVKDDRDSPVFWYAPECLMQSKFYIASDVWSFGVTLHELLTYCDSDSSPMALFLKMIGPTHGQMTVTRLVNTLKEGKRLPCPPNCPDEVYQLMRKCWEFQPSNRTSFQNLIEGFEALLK
Sequence of Ephrin type-A receptor 2 (Homo sapiens) (P29317 whole entry): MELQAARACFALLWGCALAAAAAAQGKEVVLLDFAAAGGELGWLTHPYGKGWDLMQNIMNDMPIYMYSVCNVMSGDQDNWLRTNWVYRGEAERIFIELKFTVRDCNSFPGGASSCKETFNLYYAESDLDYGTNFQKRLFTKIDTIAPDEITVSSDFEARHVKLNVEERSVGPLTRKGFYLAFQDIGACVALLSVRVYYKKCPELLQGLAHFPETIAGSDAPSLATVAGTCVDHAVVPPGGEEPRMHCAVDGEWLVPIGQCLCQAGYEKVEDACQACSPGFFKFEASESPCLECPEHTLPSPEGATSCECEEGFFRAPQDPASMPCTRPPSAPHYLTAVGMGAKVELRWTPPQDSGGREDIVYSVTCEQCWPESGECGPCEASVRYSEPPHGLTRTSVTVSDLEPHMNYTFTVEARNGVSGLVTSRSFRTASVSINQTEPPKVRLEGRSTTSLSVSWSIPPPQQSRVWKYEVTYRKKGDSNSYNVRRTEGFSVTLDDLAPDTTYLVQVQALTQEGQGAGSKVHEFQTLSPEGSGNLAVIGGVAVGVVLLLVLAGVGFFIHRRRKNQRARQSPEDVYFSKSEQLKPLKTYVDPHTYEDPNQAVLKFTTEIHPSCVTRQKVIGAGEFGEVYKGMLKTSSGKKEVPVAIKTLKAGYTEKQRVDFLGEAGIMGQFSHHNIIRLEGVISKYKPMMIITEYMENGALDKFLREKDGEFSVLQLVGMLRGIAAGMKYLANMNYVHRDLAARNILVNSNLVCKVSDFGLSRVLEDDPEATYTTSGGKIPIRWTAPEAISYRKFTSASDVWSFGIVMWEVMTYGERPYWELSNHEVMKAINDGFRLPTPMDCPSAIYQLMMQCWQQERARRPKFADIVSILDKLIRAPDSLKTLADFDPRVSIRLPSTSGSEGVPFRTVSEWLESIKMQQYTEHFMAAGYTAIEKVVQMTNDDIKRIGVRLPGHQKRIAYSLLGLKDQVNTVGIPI
Sequence of Phosphorylase b kinase regulatory subunit alpha, liver isoform (Homo sapiens) (P46019 whole entry, canonical isoform): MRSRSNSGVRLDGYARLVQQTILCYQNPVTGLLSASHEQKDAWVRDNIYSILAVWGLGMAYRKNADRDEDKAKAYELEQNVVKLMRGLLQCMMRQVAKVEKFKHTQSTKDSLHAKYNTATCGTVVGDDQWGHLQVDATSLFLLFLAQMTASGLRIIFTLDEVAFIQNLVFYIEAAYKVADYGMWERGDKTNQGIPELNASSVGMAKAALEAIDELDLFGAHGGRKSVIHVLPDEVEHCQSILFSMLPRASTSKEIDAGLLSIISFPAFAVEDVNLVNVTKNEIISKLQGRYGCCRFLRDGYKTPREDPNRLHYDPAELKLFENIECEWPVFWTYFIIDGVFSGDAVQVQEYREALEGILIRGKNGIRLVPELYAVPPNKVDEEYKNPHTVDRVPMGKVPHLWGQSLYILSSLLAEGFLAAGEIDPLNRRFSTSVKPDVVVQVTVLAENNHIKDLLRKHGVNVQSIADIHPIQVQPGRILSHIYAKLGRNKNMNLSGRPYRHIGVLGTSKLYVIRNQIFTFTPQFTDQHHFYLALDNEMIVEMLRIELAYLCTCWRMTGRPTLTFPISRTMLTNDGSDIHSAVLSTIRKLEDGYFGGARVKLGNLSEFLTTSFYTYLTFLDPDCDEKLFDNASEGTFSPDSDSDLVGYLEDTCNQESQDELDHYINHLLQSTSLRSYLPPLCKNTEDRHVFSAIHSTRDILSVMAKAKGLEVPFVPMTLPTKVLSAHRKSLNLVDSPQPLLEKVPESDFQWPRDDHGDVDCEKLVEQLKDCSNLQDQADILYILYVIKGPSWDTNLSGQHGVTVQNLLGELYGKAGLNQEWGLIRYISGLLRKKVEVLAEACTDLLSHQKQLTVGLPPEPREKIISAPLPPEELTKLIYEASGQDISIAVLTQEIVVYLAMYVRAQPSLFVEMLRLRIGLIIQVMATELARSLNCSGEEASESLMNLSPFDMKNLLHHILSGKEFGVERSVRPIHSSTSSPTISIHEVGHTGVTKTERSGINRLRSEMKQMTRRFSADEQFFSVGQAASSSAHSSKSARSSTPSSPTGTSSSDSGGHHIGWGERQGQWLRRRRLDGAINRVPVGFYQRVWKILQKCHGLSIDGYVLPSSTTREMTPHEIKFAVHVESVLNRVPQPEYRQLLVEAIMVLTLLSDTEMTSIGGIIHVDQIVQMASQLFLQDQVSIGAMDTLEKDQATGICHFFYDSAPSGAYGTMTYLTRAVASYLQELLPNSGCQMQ
Sequence of Ephrin type-B receptor 2 (Homo sapiens) (P29323 whole entry): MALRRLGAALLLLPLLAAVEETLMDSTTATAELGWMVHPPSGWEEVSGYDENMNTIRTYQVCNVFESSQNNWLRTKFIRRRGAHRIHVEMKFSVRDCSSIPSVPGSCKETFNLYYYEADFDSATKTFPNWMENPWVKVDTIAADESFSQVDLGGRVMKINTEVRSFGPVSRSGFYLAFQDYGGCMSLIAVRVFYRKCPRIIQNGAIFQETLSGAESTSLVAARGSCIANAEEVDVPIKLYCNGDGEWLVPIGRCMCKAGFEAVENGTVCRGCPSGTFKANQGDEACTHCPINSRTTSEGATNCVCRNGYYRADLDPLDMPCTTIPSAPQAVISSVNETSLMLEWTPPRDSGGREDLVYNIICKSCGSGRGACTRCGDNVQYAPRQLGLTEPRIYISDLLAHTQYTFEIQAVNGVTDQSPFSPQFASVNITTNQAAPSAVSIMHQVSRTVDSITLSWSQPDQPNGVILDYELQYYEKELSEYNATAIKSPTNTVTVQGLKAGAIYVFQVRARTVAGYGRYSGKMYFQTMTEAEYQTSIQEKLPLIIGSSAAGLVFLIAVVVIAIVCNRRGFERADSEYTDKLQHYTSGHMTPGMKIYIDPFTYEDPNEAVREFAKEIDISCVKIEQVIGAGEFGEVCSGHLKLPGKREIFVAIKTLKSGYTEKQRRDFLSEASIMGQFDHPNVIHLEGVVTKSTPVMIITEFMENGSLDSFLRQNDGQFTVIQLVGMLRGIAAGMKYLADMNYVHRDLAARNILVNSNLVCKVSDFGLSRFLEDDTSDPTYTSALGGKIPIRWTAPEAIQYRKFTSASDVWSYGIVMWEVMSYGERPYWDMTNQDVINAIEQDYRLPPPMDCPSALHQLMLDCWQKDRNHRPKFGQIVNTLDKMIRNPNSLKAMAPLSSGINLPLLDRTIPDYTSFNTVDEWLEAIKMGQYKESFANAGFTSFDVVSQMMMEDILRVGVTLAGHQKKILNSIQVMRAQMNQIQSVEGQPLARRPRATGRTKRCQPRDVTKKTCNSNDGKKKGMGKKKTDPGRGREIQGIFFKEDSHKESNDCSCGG
Sequence of Mitogen-activated protein kinase kinase kinase 3 (Homo sapiens) (Q99759 whole entry): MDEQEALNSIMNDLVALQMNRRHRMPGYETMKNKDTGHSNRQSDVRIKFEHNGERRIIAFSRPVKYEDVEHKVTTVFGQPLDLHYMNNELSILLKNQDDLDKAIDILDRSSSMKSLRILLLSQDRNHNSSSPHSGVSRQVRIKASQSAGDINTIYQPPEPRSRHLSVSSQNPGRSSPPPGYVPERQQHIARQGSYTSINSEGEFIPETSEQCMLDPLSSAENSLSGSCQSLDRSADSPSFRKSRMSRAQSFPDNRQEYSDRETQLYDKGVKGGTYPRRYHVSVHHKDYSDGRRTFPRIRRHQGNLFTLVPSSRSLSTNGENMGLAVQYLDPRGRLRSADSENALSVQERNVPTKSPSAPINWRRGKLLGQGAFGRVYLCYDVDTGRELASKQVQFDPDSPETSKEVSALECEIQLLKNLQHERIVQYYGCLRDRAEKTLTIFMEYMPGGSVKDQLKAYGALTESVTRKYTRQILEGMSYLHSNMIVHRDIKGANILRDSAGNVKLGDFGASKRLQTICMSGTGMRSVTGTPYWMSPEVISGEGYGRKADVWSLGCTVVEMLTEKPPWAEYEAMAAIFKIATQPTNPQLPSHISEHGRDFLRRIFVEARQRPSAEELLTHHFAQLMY

SMILES	residual activity [1] [%]	residual activity [2] [%]	residual activity [3] [%]	residual activity [4] [%]	residual activity [5] [%]	residual activity [6] [%]	residual activity [7] [%]	% Inhibition of Control Specific Binding (Mean n=2) [8] [%]	residual activity [9] [%]	residual activity [10] [%]	residual activity [11] [%]	residual activity [12] [%]	residual activity [13] [%]	inhibition [14] [%]	residual activity [15] [%]	residual activity [16] [%]	residual activity [17] [%]	% Inhibition of Control Specific Binding (Mean n=2) [18] [%]	residual activity [19] [%]	residual activity [20] [%]	other results
O=C(NS(=O)(=O)c1ccc(NCC2CCOCC2)c([N+](=O)[O-])c1)c1ccc(N2CCN(Cc3ccc(C(F)(F)F)cc3-c3ccc(Cl)cc3)CC2)cc1Oc1cnc2[nH]ccc2c1 [A-1210227]	100	94	100	100	92	84	100	-284	100	98	100	100	88	15.6	82	96	100	-9.4	94	81	residual activity [21]: 100%; residual activity [22]: 88%; residual activity [23]: 100%; residual activity [24]: 100%; residual activity [25]: 100%; residual activity [26]: 100%; residual activity [27]: 83%; % Inhibition of Control Specific Binding (Mean n=2) [28]: 13.5%; inhibition [29]: 12.3%; residual activity [30]: 100%; residual activity [31]: 90%; residual activity [32]: 100%
CO[C@H]1CC[C@H](CNc2ccc(S(=O)(=O)NC(=O)c3ccc(N4CCN(CC5=C(c6ccc(Cl)cc6)CC(C)(C)CC5)CC4)cc3Oc3cnc4[nH]ccc4c3)cc2[N+](=O)[O-])CC1 [A-1211212]	99	100	82	100	100	76	89	-60.6	75	93	100	81	95	33	83	100	100	4.6	67	57	residual activity [21]: 67%; residual activity [22]: 87%; residual activity [23]: 68%; residual activity [24]: 71%; residual activity [25]: 90%; residual activity [26]: 96%; residual activity [27]: 74%; % Inhibition of Control Specific Binding (Mean n=2) [28]: 15.4%; inhibition [29]: 1.2%; residual activity [30]: 74%; residual activity [31]: 83%; residual activity [32]: 100%
